Results reported in ChEMBL document CHEMBL3885881, “DrugMatrix”.

Species: Rattus norvegicus
Assay: DrugMatrix - Regimen: Daily Repeat
Format: toxicity, organism-based, Sprague-Dawley
Design: regimen Daily Repeat, gender Male, age 6-8 weeks
Details: in vivo, po, route oral GAVAGE, vehicle 100 % WATER; for ABSOLUTE BASOPHIL / ABSOLUTE EOSINOPHIL / ABSOLUTE LYMPHOCYTE / ABSOLUTE MONOCYTE / ABSOLUTE SEGMENTED NEUTROPHIL / BASOPHIL / EOSINOPHIL / ERYTHROCYTE COUNT / HEMATOCRIT / HEMOGLOBIN / LEUKOCYTE COUNT / LYMPHOCYTE / MEAN CORPUSCULAR HEMOGLOBIN / MEAN CORPUSCULAR HEMOGLOBIN CONCENTRATION / MEAN CORPUSCULAR VOLUME / MONOCYTE / NEUTROPHIL / NUCLEATED RED BLOOD CELLS / PLATELET COUNT: tissue Blood; for ALANINE AMINOTRANSFERASE / ALBUMIN / ALKALINE PHOSPHATASE / ASPARTATE AMINOTRANSFERASE / BLOOD UREA NITROGEN / CARBON DIOXIDE / CHLORIDE / CHOLESTEROL / CREATINE PHOSPHOKINASE / CREATININE / GLUCOSE / LACTATE DEHYDROGENASE / LIPASE / PHOSPHORUS / POTASSIUM / SODIUM / TOTAL BILIRUBIN / TOTAL PROTEIN / URIC ACID: tissue Plasma
[1] = 0 mg/kg, 72 h, dose level Control, time 3 day
[2] = 0 mg/kg, 120 h, dose level Control, time 5 day
[3] = 39 mg/kg, 72 h, dose level Low, time 3 day

C[C@]12Cc3c[nH]nc3C[C@@H]1CC[C@@H]1[C@@H]2CC[C@@]2(C)[C@H]1CC[C@]2(C)O [STANOZOLOL]
ABSOLUTE BASOPHIL [1]: 0 CELLS/uL
ABSOLUTE EOSINOPHIL [1]: 32.5 CELLS/uL
ABSOLUTE LYMPHOCYTE [1]: 9305.83 CELLS/uL
ABSOLUTE MONOCYTE [1]: 43.83 CELLS/uL
ABSOLUTE SEGMENTED NEUTROPHIL [1]: 817.83 CELLS/uL
BASOPHIL [1]: 0%
EOSINOPHIL [1]: 0.33%
ERYTHROCYTE COUNT [1]: 5.38 x10E6/uL
HEMATOCRIT [1]: 33.63%
HEMOGLOBIN [1]: 13.17 G/DL
LEUKOCYTE COUNT [1]: 10.2 x10E3/uL
LYMPHOCYTE [1]: 91.17%
MEAN CORPUSCULAR HEMOGLOBIN [1]: 24.5 pg
MEAN CORPUSCULAR HEMOGLOBIN CONCENTRATION [1]: 39.13 G/DL
MEAN CORPUSCULAR VOLUME [1]: 62.53 fL
MONOCYTE [1]: 0.5%
NEUTROPHIL [1]: 8%
NUCLEATED RED BLOOD CELLS [1]: 0.17 /100WBC
PLATELET COUNT [1]: 858 x10E3/uL
ALANINE AMINOTRANSFERASE [1]: 55.67 u/L
ALBUMIN [1]: 4.07 G/DL
ALKALINE PHOSPHATASE [1]: 337 u/L
ASPARTATE AMINOTRANSFERASE [1]: 84 u/L
BLOOD UREA NITROGEN [1]: 13.17 mg/dL
CARBON DIOXIDE [1]: 34.17 mmol/L
CHLORIDE [1]: 99.33 MEQ/L
CHOLESTEROL [1]: 78.83 mg/dL
CREATINE PHOSPHOKINASE [1]: 576.83 u/L
CREATININE [1]: 0.17 mg/dL
GLUCOSE [1]: 152.67 mg/dL
LACTATE DEHYDROGENASE [1]: 147.83 u/L
LIPASE [1]: 9.5 u/L
PHOSPHORUS [1]: 10.78 mg/dL
POTASSIUM [1]: 6.34 MEQ/L
SODIUM [1]: 144.12 MEQ/L
TOTAL BILIRUBIN [1]: 0.18 mg/dL
TOTAL PROTEIN [1]: 6.08 G/DL
URIC ACID [1]: 0.65 mg/dL
ABSOLUTE BASOPHIL [2]: 0 CELLS/uL
ABSOLUTE EOSINOPHIL [2]: 31.17 CELLS/uL
ABSOLUTE LYMPHOCYTE [2]: 7918.33 CELLS/uL
ABSOLUTE MONOCYTE [2]: 58.33 CELLS/uL
ABSOLUTE SEGMENTED NEUTROPHIL [2]: 725.5 CELLS/uL
BASOPHIL [2]: 0%
EOSINOPHIL [2]: 0.33%
ERYTHROCYTE COUNT [2]: 5.32 x10E6/uL
HEMATOCRIT [2]: 33.53%
HEMOGLOBIN [2]: 13.17 G/DL
LEUKOCYTE COUNT [2]: 8.73 x10E3/uL
LYMPHOCYTE [2]: 90.33%
MEAN CORPUSCULAR HEMOGLOBIN [2]: 24.82 pg
MEAN CORPUSCULAR HEMOGLOBIN CONCENTRATION [2]: 39.33 G/DL
MEAN CORPUSCULAR VOLUME [2]: 63.12 fL
MONOCYTE [2]: 0.67%
NEUTROPHIL [2]: 8.67%
NUCLEATED RED BLOOD CELLS [2]: 0 /100WBC
PLATELET COUNT [2]: 1144.83 x10E3/uL
ALANINE AMINOTRANSFERASE [2]: 60.5 u/L
ALBUMIN [2]: 3.97 G/DL
ALKALINE PHOSPHATASE [2]: 343.17 u/L
ASPARTATE AMINOTRANSFERASE [2]: 80.83 u/L
BLOOD UREA NITROGEN [2]: 15 mg/dL
CARBON DIOXIDE [2]: 31 mmol/L
CHLORIDE [2]: 99.75 MEQ/L
CHOLESTEROL [2]: 71.5 mg/dL
CREATINE PHOSPHOKINASE [2]: 237.17 u/L
CREATININE [2]: 0.17 mg/dL
GLUCOSE [2]: 137 mg/dL
LACTATE DEHYDROGENASE [2]: 146.17 u/L
LIPASE [2]: 11.5 u/L
PHOSPHORUS [2]: 10.13 mg/dL
POTASSIUM [2]: 6 MEQ/L
SODIUM [2]: 145 MEQ/L
TOTAL BILIRUBIN [2]: 0.13 mg/dL
TOTAL PROTEIN [2]: 5.82 G/DL
URIC ACID [2]: 0.62 mg/dL
ABSOLUTE BASOPHIL [3]: 0 CELLS/uL
ABSOLUTE EOSINOPHIL [3]: 60.33 CELLS/uL
ABSOLUTE LYMPHOCYTE [3]: 8653.33 CELLS/uL
ABSOLUTE MONOCYTE [3]: 60.33 CELLS/uL
ABSOLUTE SEGMENTED NEUTROPHIL [3]: 526 CELLS/uL
BASOPHIL [3]: 0%
EOSINOPHIL [3]: 0.67%
ERYTHROCYTE COUNT [3]: 5.9 x10E6/uL
HEMATOCRIT [3]: 35.57%
HEMOGLOBIN [3]: 13.63 G/DL
LEUKOCYTE COUNT [3]: 9.3 x10E3/uL
LYMPHOCYTE [3]: 93.33%
MEAN CORPUSCULAR HEMOGLOBIN [3]: 23.13 pg
MEAN CORPUSCULAR HEMOGLOBIN CONCENTRATION [3]: 38.33 G/DL
MEAN CORPUSCULAR VOLUME [3]: 60.33 fL
MONOCYTE [3]: 0.67%
NEUTROPHIL [3]: 5.33%
NUCLEATED RED BLOOD CELLS [3]: 0 /100WBC
PLATELET COUNT [3]: 1025.67 x10E3/uL
ALANINE AMINOTRANSFERASE [3]: 58 u/L
ALBUMIN [3]: 4.17 G/DL
ALKALINE PHOSPHATASE [3]: 448.33 u/L
ASPARTATE AMINOTRANSFERASE [3]: 81 u/L
BLOOD UREA NITROGEN [3]: 13.67 mg/dL
CARBON DIOXIDE [3]: 34.67 mmol/L
CHLORIDE [3]: 99.33 MEQ/L
CHOLESTEROL [3]: 57.33 mg/dL
CREATINE PHOSPHOKINASE [3]: 465.67 u/L
CREATININE [3]: 0.14 mg/dL
GLUCOSE [3]: 134.67 mg/dL
LACTATE DEHYDROGENASE [3]: 171.33 u/L
LIPASE [3]: 9 u/L
PHOSPHORUS [3]: 11.43 mg/dL
POTASSIUM [3]: 6.05 MEQ/L
SODIUM [3]: 145.03 MEQ/L
TOTAL BILIRUBIN [3]: 0.2 mg/dL
TOTAL PROTEIN [3]: 6.13 G/DL
URIC ACID [3]: 0.6 mg/dL
